One experiment addresses T1, TMEM16A (acd) (Homo sapiens, UniProt Q5XXA6).
T1 sequence (Q5XXA6 1-986): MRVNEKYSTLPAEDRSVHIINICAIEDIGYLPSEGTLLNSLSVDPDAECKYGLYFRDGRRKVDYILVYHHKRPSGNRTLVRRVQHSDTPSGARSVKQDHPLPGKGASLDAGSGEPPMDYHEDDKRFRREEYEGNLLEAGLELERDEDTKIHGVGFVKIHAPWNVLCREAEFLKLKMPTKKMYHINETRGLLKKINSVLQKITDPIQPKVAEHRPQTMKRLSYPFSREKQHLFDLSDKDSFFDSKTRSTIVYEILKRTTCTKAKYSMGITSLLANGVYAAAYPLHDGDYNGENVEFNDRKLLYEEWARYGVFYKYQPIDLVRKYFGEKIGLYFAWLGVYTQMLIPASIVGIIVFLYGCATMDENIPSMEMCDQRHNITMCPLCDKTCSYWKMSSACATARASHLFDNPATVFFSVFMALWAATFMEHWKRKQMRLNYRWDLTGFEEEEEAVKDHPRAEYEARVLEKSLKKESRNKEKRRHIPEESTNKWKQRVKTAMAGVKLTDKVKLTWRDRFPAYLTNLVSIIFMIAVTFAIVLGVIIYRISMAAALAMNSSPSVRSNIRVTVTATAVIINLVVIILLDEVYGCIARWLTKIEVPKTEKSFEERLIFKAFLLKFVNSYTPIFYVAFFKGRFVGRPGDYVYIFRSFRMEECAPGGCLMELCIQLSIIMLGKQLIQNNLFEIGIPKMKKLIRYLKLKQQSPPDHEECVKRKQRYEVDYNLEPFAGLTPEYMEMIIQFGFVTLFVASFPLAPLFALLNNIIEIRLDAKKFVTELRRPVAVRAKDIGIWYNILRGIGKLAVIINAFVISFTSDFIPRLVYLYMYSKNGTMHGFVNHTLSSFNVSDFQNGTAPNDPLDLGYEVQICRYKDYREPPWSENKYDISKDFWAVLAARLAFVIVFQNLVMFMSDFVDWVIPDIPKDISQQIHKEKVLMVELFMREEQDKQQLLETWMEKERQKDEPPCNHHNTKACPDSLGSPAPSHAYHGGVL
The experiment is described as follows: QPatch whole-cell electrophysiology, HEK293 TMEM16A (acd). Format: cell-based. The note with it: supplement; 170 nM free intracellular calcium; read-out: IC50 for blocking the TMEM16A outward current, QPatch. The source says:
HEK293 cells stably expressing the TMEM16A (acd) variant were purchased from SB Drug Discovery. The HEK293 TMEM16A (abc) stable cell line was from ChanTest and COLO-205 cells were purchased from ATCC. The same standard buffers and recording conditions listed below were used for QPatch studies on all three cell lines.
Recording Solutions: were made weekly as below and stored at room temperature until used. It is recommended not to add ATP to internal solution until immediately before using on the QPatch. The external buffer (in mM) was 140 NaCl, 4 KCl, 2 CaCl2, 1 MgCl2, 10 HEPES, 10 Glucose, pH7.4, while the internal buffer (in mM) was 110 CsCl, 20 TEA-Cl, 5.374 CaCl2, 1.75 MgCl2, 10 EGTA, 10 HEPES, 4 Na2ATP, pH 7.2.
Once established in whole-cell configuration, cells were clamped to a holding potential (Vhold) of 0 mV on 48 well single hole patch plate. A standardized IV protocol was used to elicit ionic current through the TMEM16A chloride channel at 20 s intervals. Steady-state voltage pulses were from −100 mV to +100 mV in +20 mV steps for a duration of 500 ms. After each pulse the voltage was returned to −100 mV for 50 ms to obtain tail currents, and then returned to the holding potential of 0 mV until the beginning of the next sweep. […] This ensures a minimum of 60 s per concentration incubation before measuring current block. Currents were acquired at 10 kHz and filtered at 2 kHz, leak subtraction and Rseries were disabled. A 1 MΩ minimum resistance was set because cells are held in an open channel state and therefore resistance is low.
A cumulative concentration response was measured where each cell is exposed to five concentrations of test article with a dilution factor of 1:5 (e.g., 0.048, 0.24, 1.2, 6, and 30 μM). Cells were recorded for ∼60 s per solution/compound addition. Initially, external solution is applied twice to allow currents to stabilize. Then vehicle (from the saline reservoir) is added twice to monitor any effect 0.3% DMSO might have on currents. This leads directly into the concentration runs by applying Concentration 1 (single addition) for 1 min. Concentration 2 is then applied for the subsequent minute, etc. Recovery/washout was monitored for a final minute with a final external solution addition.
[…] […] Each cell’s current magnitude was then normalized to itself at the initial 0.3% vehicle control period prior to compound application. This step is to account for differences in current size for each cell. Normalized responses to test article were plotted against their concentrations to reveal a concentration-inhibition plot.
A Normalized Group Hill fit was then performed on the plotted results to yield a pooled IC50 value, reconstructed from a minimum of two cells/concentration. The baseline response as well as the full response were constrained to 1 and 0, respectively.

A further experiment concerns the target T2, hTMEM16A (abc) (Homo sapiens, UniProt Q5XXA6, DEL476-501).
T2 sequence (Q5XXA6 with tags, fused parts or gaps isoform Q5XXA6-5 DEL539-564): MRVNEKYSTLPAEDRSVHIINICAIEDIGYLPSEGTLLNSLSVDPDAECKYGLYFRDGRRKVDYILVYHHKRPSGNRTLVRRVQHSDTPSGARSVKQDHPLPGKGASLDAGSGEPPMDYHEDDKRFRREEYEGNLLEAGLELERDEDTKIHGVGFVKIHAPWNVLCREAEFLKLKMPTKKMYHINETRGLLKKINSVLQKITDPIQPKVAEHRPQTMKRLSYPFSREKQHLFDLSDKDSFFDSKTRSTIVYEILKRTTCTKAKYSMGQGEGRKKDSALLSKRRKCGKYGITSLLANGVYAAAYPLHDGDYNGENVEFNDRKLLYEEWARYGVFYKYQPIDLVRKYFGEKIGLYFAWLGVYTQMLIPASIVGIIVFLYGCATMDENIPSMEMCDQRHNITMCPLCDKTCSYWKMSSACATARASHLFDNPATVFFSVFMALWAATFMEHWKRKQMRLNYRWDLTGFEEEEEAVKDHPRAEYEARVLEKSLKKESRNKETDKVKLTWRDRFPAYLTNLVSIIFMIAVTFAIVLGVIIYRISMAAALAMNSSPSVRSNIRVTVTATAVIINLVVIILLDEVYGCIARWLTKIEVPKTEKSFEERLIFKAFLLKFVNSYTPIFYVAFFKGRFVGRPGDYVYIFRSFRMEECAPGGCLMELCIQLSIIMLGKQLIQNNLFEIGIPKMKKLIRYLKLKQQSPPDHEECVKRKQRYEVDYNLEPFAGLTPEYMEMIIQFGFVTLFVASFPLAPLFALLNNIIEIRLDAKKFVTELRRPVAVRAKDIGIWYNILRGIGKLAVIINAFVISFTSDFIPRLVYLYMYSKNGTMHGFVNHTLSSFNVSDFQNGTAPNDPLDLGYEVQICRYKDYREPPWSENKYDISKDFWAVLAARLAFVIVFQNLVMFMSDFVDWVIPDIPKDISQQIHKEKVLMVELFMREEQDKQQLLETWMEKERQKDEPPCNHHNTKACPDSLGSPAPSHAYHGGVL
Description: medchem TMEM16A halide-sensitive YFP assay, 22-point dose-response. The note with it: supplement; iodide as permeant anion, maximum concentration 55.6; read-out: TMEM16A eYFP Assay IC50. Further details: expressed in transfected cells. Type of experiment: cell-based. As for the experimental part: The TMEM16A HEK293T eYFP (H149Q, I153L) stable cell line for medchem support was generated by transfecting 10 μg of linearized hTMEM16A(abc) DNA constructs into HEK293T eYFP (H149Q,I153L) stable cells. The transfected cells were cultured under 200 μg/ml of hygromycin B selection for 20 days and the stable pool was single cell seeded in 96 well plate and duplicated plate were made after single cell clones were formed. YFP function assay were performed on duplicated plate and clones producing higher changes in fluorescence from the YFP assay were chosen for further expansion to form a stable cell line.
Plates were incubated for 24 h at 37°C with 5% CO2. On the assay day, medium was removed and replaced with 20 μl/well of assay buffer (Hank’s Balanced Salt Solution with 10 mM HEPES pH 7.4), 10 μl/well of 40x diluted compounds was added to assay plate and it was incubated at room temperature for 30 min, after which baseline fluorescence was read in the FLIPR instrument for 10 s. Then, 5 μl/well of a 3x trigger solution (24 mM iodide, 3 μM ionomycin in assay buffer) was added and the fluorescence kinetic trace was recorded for 2 min.

The test system of experiment [1] is Wnt/β-catenin transcription. Description: Wnt/β-catenin transcription TOPFlash reporter assay. Format: cell-based. The note with it: Wnt TopFlash IC50 over TMEM16A eYFP IC50.
For experiment [2], the system named is Wnt/β-catenin transcription. As to conditions: ref Mook et al. (2015); read-out: Mook et al. Wnt/β-catenin TopFlash (IC50); cited from earlier work.
The subject of a further experiment is human bronchial rings. The experiment is described as follows: Wire myograph bronchodilation of histamine pre-contracted human bronchial rings (Biopta). From the text: Details of bronchodilator studies shown in Figure 5H, 6 and Supplementary Figure 40 are provided below as part of the end assay report on Study CUR011 by Lee Christie (Biopta). Donors with any of the following conditions were excluded from the study: asthma, COPD, emphysema, lung cancer, cystic fibrosis, pulmonary fibrosis, pulmonary hypertension, pneumonia. Donors were also excluded if they had smoked in the past 12 months. Non-transplantable lung tissue was acquired from organ donors post mortem. Any macroscopically diseased/necrotic tissue was rejected. […] Human airway rings were set up under isometric conditions on a wire myograph in order to examine the influence of the test articles on bronchodilation. In order to assess tissue viability, the airways were challenged with carbachol (10 μM) and then isoprenaline (10 μM) to assess their constriction and relaxation responses, respectively. […] Viable airways were pre-constricted with histamine (10 μM), then exposed to one of the following cumulative concentration response curves (CCRCs): positive control, vehicle (water, volume matched to positive control), test article, vehicle (DMSO concentration matched to test articles). At the end of each CCRC, theophylline (2.2 mM) was added to induce maximal relaxation of the tissue. […] Airways were re-tensioned to 1.0 – 1.5 g if the tension had dropped below 1.0 g during the first 30 min of equilibration. (b) Airways were exposed to carbachol (bath concentration 10 μM) in order to measure their contractile responses and then isoprenaline (10 μM) in order to assess their relaxation. Airways were washed out and allowed to return to baseline. (c) Airways were pre-constricted with histamine (10 μM) before conducting a CCRC to the test article, the positive control (isoprenaline), test article vehicle or positive control vehicle.

Another experiment addresses T3, human CFTR (Homo sapiens, UniProt P13569).
T3 construct: host or cells: CHO
Description: IonWorks Barracuda electrophysiology, CFTR chloride current in CHO cells. Format: cell-based. The note with it: 10 µM compound, CHO CFTR. From the text:
HEK293 cells stably expressing the human TMEM16A (abc) variant and CHO cells expressing the human CFTR gene were from ChanTest. The IonWorks Barracuda (IWB) procedure and data provided are from outsourced studies performed at ChanTest (Charles River Discovery, Cleveland, OH, United States) who were blinded as to the identity of the test articles or compounds provided by Amgen.
For measuring compound effects on CFTR chloride currents, compounds were serially diluted in HEPES-buffered physiological saline to 2X final concentration allowing for an 8-point dose-response analysis. Test article concentrations were applied to naïve cells (n = 4, where n = the number of replicate wells/concentration) via steel needles, where each application will consist of addition of 20 μl of 2X concentrated test article solution to a final 40 μl volume in the extracellular well of the Population Patch ClampTM (PPC) planar electrode. After mixing (three times), duration of exposure to compound is at least 5 min. Final solutions contain 0.3% DMSO. […] The current is measured using a pulse pattern consisting of a voltage step to +60 mV, 100 ms duration; voltage ramp from +60 to −120 mV, 1000 ms; step to −120 mV, 200 ms; and step to 0 mV, 200 ms; from holding potential, −30 mV. Current amplitudes were measured at the voltage step to 0 mV. The recording procedure was as follows: extracellular buffer is loaded into the PPC plate wells (11 μl per well). Cell suspension was pipetted into the wells (9 μl per well) of the PPC planar electrode. After establishment of a whole-cell configuration via amphotericin patch perforation similar to that described earlier, membrane currents were recorded using the patch clamp amplifier in the IonWorks^TM Barracuda system. Two recordings (scans) were then performed, one scan before and a second scan 5 min after test article (TA) application. […] Data acquisition and analyses were performed using the IonWorks Barracuda^TM system operation software (version 2.0.2). The decrease in current amplitude after test article application was used to calculate the percent block relative to control. […] Inhibition effect was calculated as: % Inhibition = (1 – ITA/IBaseline) × 100%, where IBaseline and ITA were the currents measured in control (before addition of a test article) and in the presence of a test article, respectively.

A value given as a limit tells only on which side of the number the result lay.

T3 sequence (P13569 whole entry): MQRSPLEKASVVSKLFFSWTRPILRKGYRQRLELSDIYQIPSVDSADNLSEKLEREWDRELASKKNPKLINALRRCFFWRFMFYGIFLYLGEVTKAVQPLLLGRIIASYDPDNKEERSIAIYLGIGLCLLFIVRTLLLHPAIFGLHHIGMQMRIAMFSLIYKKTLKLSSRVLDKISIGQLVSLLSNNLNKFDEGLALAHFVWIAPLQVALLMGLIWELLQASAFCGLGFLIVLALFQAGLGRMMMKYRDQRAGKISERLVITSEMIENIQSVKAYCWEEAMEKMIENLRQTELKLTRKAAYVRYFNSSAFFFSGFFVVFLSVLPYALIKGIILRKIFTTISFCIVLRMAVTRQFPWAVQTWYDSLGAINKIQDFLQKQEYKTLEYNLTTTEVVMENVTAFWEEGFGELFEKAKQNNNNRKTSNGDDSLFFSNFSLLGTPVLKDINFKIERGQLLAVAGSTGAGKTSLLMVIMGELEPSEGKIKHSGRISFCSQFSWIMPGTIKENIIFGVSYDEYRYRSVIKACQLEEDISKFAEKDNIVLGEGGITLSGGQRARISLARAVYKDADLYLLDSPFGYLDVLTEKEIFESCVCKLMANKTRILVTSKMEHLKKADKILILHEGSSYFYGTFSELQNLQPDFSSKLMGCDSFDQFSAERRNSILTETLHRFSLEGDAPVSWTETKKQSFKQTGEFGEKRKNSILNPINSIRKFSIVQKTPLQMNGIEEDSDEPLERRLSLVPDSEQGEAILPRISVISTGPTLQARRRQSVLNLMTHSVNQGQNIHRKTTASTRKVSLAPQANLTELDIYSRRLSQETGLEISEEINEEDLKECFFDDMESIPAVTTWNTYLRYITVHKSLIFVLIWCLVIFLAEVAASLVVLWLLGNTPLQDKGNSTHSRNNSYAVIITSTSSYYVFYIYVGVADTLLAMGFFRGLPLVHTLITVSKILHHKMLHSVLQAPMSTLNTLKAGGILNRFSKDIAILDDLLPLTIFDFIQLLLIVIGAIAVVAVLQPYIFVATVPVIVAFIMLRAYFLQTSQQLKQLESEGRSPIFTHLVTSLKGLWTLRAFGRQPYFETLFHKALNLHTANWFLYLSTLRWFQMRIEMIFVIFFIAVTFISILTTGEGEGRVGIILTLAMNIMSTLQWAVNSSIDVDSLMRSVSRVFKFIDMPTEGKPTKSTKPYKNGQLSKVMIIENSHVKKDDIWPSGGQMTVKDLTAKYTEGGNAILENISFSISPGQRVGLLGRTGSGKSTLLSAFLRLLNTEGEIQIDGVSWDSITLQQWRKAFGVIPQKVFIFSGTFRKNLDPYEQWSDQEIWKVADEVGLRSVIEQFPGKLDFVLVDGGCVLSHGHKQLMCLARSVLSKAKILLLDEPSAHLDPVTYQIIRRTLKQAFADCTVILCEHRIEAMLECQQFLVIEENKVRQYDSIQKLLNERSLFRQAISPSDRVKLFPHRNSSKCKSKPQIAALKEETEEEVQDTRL

`O=C(Nc1ccccc1C(=O)Nc1nnc(C(F)(F)F)s1)c1ccccc1Cl` [CID# 2806957]: the IC50 on TMEM16A (acd) is 670 nM.
Take `O=C(Nc1ccccc1)c1cc(Cl)ccc1O` [Cpd 6]: the IC50 at hTMEM16A (abc) was 1040 nM; in experiment [2] it was 11800 nM. Moreover, the “IC50 Ratio, Wnt/TMEM16A” value in experiment [1] was 11.36.
For the compound `O=C(Nc1c(Cl)cccc1Cl)c1cc(Cl)ccc1O` [Cpd 15], the IC50 in experiment [2] is greater than 12000 nM.
As to `O=C(Nc1c(F)cccc1F)c1cc(Cl)ccc1O` [Cpd 18], the values for the IC50 (at hTMEM16A (abc); in experiment [2]) were 13400 nM and greater than 12000 nM, respectively.
Turning to `CC(C)(C)NCC(O)c1ccc(O)c(CO)c1` (centres unmarked) [Salbutamol, salbutamol], the EC50 in the experiment with human bronchial rings (Homo sapiens, 10 μM histamine, read-out: EC50 bronchodilating histamine precontracted human airways) was found to be 119 nM. For the same compound, the “time to open airways” value in the experiment on human bronchial rings (summary) was less than 7 min.
With `NCCNCCNC(=O)c1cc2ccccc2cc1O` [compound 111758], the IC50 at hTMEM16A (abc) was 91 ± 28 nM.
For the compound `CC1(C)C(O)C1C#Cc1ccccc1` (centres unmarked) [compound 598689], at hTMEM16A (abc), the IC50 worked out at 466 ± 101 nM.
Take `CCCn1c(SCC(=O)NCC(F)(F)F)nc2ccccc2c1=O` [compound 2100101]: the IC50 at hTMEM16A (abc) was determined as 3330 nM.
On to `Cc1ccc(-c2nnn(CC(=O)N(c3cccc(C(F)(F)F)c3)C(C(=O)NC(C)(C)C)c3cccs3)n2)cc1` (centres unmarked) [compound 3179204], for which the IC50 on hTMEM16A (abc) stood at 334 nM.
Take CFTRinh-172: the “effect on CFTR chloride current” value on human CFTR was “fully inhibited”.
